Source: patent US8822494B2 (Pfizer Inc., priority 2012, dated 2014)

Assays:
[1] = biological target: T1, Human D1 (Homo sapiens (Human), UniProt P21728); test: D1 cAMP HTRF Assay; format: cell-based; conditions: HEK293T/hD1#1 stable cell line, 30 min at room temperature; footnote a = geometric mean of ≧7 determinations
Description: This assay was used to determine the ability of a test compound to agonize (including partially agonize) D1. A Mab anti-cAMP labeled Cryptate visualizes the tracer. […] The signal, therefore, is inversely proportional to the concentration of cAMP in the sample.
The cAMP Dynamic kit was obtained from Cisbio International (Cisbio 62AM4PEJ). Multidrop Combi (Thermo Scientific) was used for assay additions. An EnVision (PerkinElmer) reader was used to read HTRF.
A HEK293T/hD1#1 stable cell line was constructed internally (Pfizer Ann Arbor).
Media was removed and cell pellet was re-suspended in PBS/[…] generating 2e5 cells/mL. […] Working solutions of cAMP-D2 and anti-cAMP-cryptate were prepared according to Cisbio instructions. […] The assay plate was incubated for 1 hour at room temperature. The assay plate was read on an EnVision plate reader using Cisbio recommended settings.
Data analysis was done using computer software. Percent effects were calculated from the compound controls. Ratio EC50 was determined using the raw ratio data from the EnVision reader. The cAMP standard curve was used in an analysis program to determine cAMP concentrations from raw ratio data. cAMP EC50 was determined using the calculated cAMP data.

[2] = biological target: T1, Human D1; test: Human D1 Receptor Binding Assay ([3H]-SCH23390 competition); conditions: read-out: Human D1 Receptor Binding, Ki (μM); Geometric mean of 2-3 determinations; over-expressing LTK human cell lines, 0.5 nM [3H]-SCH23390, 30 min at 37° C.; footnote b = single determination, c = geometric mean of ≧4 determinations
Procedure: D1 binding assays were performed using over-expressing LTK human cell lines. […] These ligand and tissue concentrations were used in time course studies to determine linearity and equilibrium conditions for binding. […] The pellet was resuspended in assay buffer [50 mM Tris (pH 7.4@ RT) containing 4 mM MgSO4 and 0.5 mM EDTA]. […] Non-specific binding was determined by radioligand binding in the presence of a saturating concentration of (+)-Butaclamol (10 μM), a D1 antagonist. After a 30 minute incubation period at 37° C., assay samples were rapidly filtered through Unifilter-96 GF/B PEI-coated filter plates and rinsed with 50 mM Tris buffer (pH 7.4 at 4° C.). […] Ki values were calculated according to the Cheng-Prusoff equation: […]

T1 sequence (P21728 whole entry): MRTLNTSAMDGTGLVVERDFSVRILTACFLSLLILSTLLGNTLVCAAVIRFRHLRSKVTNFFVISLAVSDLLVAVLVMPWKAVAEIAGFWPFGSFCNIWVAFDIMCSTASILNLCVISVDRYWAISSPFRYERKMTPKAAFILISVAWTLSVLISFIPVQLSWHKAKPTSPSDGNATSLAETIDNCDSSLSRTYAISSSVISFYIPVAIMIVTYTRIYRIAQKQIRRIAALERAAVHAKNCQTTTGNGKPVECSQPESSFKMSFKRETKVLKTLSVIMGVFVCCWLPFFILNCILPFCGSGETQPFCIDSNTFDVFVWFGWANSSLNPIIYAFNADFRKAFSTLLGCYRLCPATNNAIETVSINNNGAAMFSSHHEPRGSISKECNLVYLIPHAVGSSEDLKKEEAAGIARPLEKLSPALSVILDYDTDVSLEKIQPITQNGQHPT

Work on `Cc1cc(Oc2nccc3[nH]ccc23)ccc1-c1c(C)ncnc1C` [Example 5, 4-[4-(4,6-dimethylpyrimidin-5-yl)-3-methylphenoxy]-1H-pyrrolo[3,2-c]pyridine] yielded an EC50 [1] of 0.146 µM and a Ki [2] of 0.013 µM.

With `Cc1cc(Oc2nccc3[nH]ncc23)ccc1-c1c(C)ncnc1C` [Example 6, 4-[4-(4,6-dimethylpyrimidin-5-yl)-3-methylphenoxy]-1H-pyrazolo[4,3-c]pyridine] the EC50 [1] was 0.568 µM and the Ki [2] was 0.113 µM.

Work on `Cc1n[nH]c(=O)c(C)c1-c1ccc(Oc2nccc3[nH]ccc23)cc1` [Example 7, 4,6-dimethyl-5-[4-(1H-pyrrolo[3,2-c]pyridin-4-yloxy)phenyl]pyridazin-3(2H)-one] yielded an EC50 [1] of 0.0192 µM and a Ki [2] of 0.00412 µM.

`Cc1cc(Oc2nccc3[nH]ccc23)ccc1-c1c(C)ncc2nccn12` [Example 14, 6-methyl-5-[2-methyl-4-(1H-pyrrolo[3,2-c]pyridin-4-yloxy)phenyl]imidazo[1,2-a]pyrazine] was tested, and the EC50 [1] was 0.137 µM and the Ki [2] was 0.00798 µM.

`Cc1cc(Oc2nccc3[nH]ccc23)ccc1-c1cncc2nccn12` [Example 15, 5-[2-methyl-4-(1H-pyrrolo[3,2-c]pyridin-4-yloxy)phenyl]imidazo[1,2-a]pyrazine] gave an EC50 [1] of 0.417 µM and a Ki [2] of 0.0975 µM.

Compound `Cc1ncnc(C#N)c1-c1ccc(Oc2nccc3[nH]ccc23)cc1F` [Example 16, 5-[2-fluoro-4-(1H-pyrrolo[3,2-c]pyridin-4-yloxy)phenyl]-6-methylpyrimidine-4-carbonitrile] has an EC50 [1] of 0.396 µM and a Ki [2] of 0.0283 µM.

Compound `Cc1cc(Oc2nccc3[nH]ccc23)ccc1-c1c(C)ncnc1C#N` [Example 17, 6-methyl-5-[2-methyl-4-(1H-pyrrolo[3,2-c]pyridin-4-yloxy)phenyl]pyrimidine-4-carbonitrile] has an EC50 [1] of 0.374 µM and a Ki [2] of 0.0392 µM.

Compound `Cc1ncc2nccn2c1-c1ccc(Oc2nccc3[nH]ccc23)cc1F` [Example 18, 5-[2-fluoro-4-(1H-pyrrolo[3,2-c]pyridin-4-yloxy)phenyl]-6-methylimidazo[1,2-a]pyrazine] has an EC50 [1] of 0.141 µM and a Ki [2] of 0.0294 µM.

Compound `Cc1ncc2nccn2c1-c1ccc(Oc2nccc3[nH]ccc23)cc1` [Example 19, 6-methyl-5-[4-(1H-pyrrolo[3,2-c]pyridin-4-yloxy)phenyl]imidazo[1,2-a]pyrazine] has an EC50 [1] of 0.464 µM and a Ki [2] of 0.0159 µM.

Compound `Cc1ncnc(C)c1-c1ccc(Oc2nccc3[nH]ccc23)cc1` [Example 20, 4-[4-(4,6-dimethylpyrimidin-5-yl)phenoxy]-1H-pyrrolo[3,2-c]pyridine] has an EC50 [1] of 0.238 µM and a Ki [2] of 0.0443 µM.

`Cc1ncnc(C)c1-c1ccc(Oc2nccc3[nH]ccc23)cc1C#N` [Example 21, 2-(4,6-dimethylpyrimidin-5-yl)-5-(1H-pyrrolo[3,2-c]pyridin-4-yloxy)benzonitrile] gave an EC50 [1] of 0.247 µM and a Ki [2] of 0.102 µM.

In the case of `Cc1ncnc(C)c1-c1cc(F)c(Oc2nccc3[nH]ccc23)cc1F` [Example 22, 4-[4-(4,6-dimethylpyrimidin-5-yl)-2,5-difluorophenoxy]-1H-pyrrolo[3,2-c]pyridine], the EC50 [1] is reported as 0.538 µM and the Ki [2] is reported as 0.0548 µM.

Compound `Cc1ncnc(C)c1-c1ccc(Oc2nccc3[nH]ccc23)c(F)c1F` [Example 23, 4-[4-(4,6-dimethylpyrimidin-5-yl)-2,3-difluorophenoxy]-1H-pyrrolo[3,2-c]pyridine] has an EC50 [1] of 0.59 µM and a Ki [2] of 0.0538 µM.

`Cc1ncnc(C)c1-c1ccc(Oc2nccc3[nH]ccc23)cc1Cl` [Example 24, 4-[3-chloro-4-(4,6-dimethylpyrimidin-5-yl)phenoxy]-1H-pyrrolo[3,2-c]pyridine] was tested, and the EC50 [1] was 0.102 µM and the Ki [2] was 0.00984 µM.

With `Cc1ncnc(N2CC(F)C2)c1-c1ccc(Oc2nccc3[nH]ccc23)cc1F` [Example 25, 4-{3-fluoro-4-[4-(3-fluoroazetidin-1-yl)-6-methylpyrimidin-5-yl]phenoxy}-1H-pyrrolo[3,2-c]pyridine] the EC50 [1] was 0.156 µM and the Ki [2] was 0.00509 µM.

Work on `Cc1cc(Oc2nccc3[nH]ccc23)ccc1-c1cn[nH]c(=O)c1C` [Example 28, 4-methyl-5-[2-methyl-4-(1H-pyrrolo[3,2-c]pyridin-4-yloxy)phenyl]pyridazin-3(2H)-one] yielded an EC50 [1] of 0.0549 µM and a Ki [2] of 0.0357 µM.
